Test results: patent US20140248358A1, “Therapeutic Nanoparticles Comprising a Therapeutic Agent and Methods of Making and Using Same” (BIND Therapeutics, Inc., priority 2012, published 2014)
≈ marks a conversion by molar mass, not a printed value. Structures can show the parent of a compound that is named as a salt. Where two headings read alike, the source gives them in different places.

What was measured:
[1] = cited from earlier work
[2] = hydrophobic acid; cited from earlier work
[3] = Solubility of dasatinib in solvents, quantified using HPLC; type: physicochemical; settings: for solubility: organic solvent or mixture, read-out: Dasatinib solubility (mg/mL, by HPLC)
Excerpt: The solubility of dasatinib in benzyl alcohol, ethyl acetate, and mixtures of oleic acid and benzyl alcohol were quantified using HPLC.

[4] = Stability of dasatinib in release buffer at 37° C.
[5] = protonatable nitrogen-containing therapeutic agent

Compound	pKa ([1]; hydrophobic acid)	log P [2]	other results
O=C(O)c1ccc2ccccc2c1O [1-hydroxy-2-naphthoic acid]	2-3	2.97	
C=C1CC[C@@H](OS(=O)(=O)O)C/C1=C/C=C1\CCC[C@]2(C)[C@@H]([C@H](C)CCCC(C)C)CC[C@@H]12 [Vitamin D3-sulfate]	−1.5		
CC(C)CCC[C@@H](C)[C@H]1CC[C@H]2[C@@H]3CC=C4C[C@@H](OS(=O)(=O)O)CC[C@]4(C)[C@H]3CC[C@]12C [cholesteryl sulfate]	−1.4		
Cc1nc(Nc2ncc(C(=O)Nc3c(C)cccc3Cl)s2)cc(N2CCN(CCO)CC2)n1 [dasatinib]			pKa [1, 5]: 7.07; solubility ([3]; 3% oleic acid in benzyl alcohol, 3% Oleic Acid in BA): 16.8 mg/mL (≈ 34.5 mM); solubility ([3]; 6% oleic acid in benzyl alcohol, 6% Oleic Acid in BA): 25.2 mg/mL (≈ 51.6 mM); solubility ([3]; 9% oleic acid in benzyl alcohol, 9% Oleic Acid in BA): 29.8 mg/mL (≈ 61.1 mM); improvement of solubility of dasatinib ([3]; benzyl alcohol doped with oleic acid vs benzyl alcohol): 2-3 fold; solubility ([3]; solvent BA (benzyl alcohol)): 9.45 mg/mL (≈ 19.4 mM); solubility ([3]; solvent EA (ethyl acetate)): 0.32 mg/mL (≈ 0.656 mM); stability in release buffer [4]: degraded after 24 hours
C[C@H](CCC(=O)O)[C@H]1CC[C@H]2[C@@H]3CC[C@@H]4C[C@H](O)CC[C@]4(C)[C@H]3C[C@H](O)[C@]12C [deoxycholic acid]	4.65	3.79	
CCCCCCCC/C=C\CCCCCCCC(=O)OC[C@H](COP(=O)(O)O)OC(=O)CCCCCCC/C=C\CCCCCCCC [dioleoyl phosphatidic acid]	~2		
CCCCCCCCCCCCc1ccc(S(=O)(=O)O)cc1 [dodecylbenzenesulfonic acid]	−1.8	6.6	
CCCCCCCCCCCCOS(=O)(=O)O [dodecylsulfuric acid]	−0.09	4.5	
Cc1ccc(NC(=O)c2ccc(CN3CCN(C)CC3)cc2)cc1Nc1nccc(-c2cccnc2)n1 [imatinib, reference compound]			pKa [1, 5]: 8.38
O=S(=O)(O)c1cccc2c(S(=O)(=O)O)cccc12 [naphthalene-1,5-disulfonic acid]	−2	1.3	
O=S(=O)(O)c1ccc2ccccc2c1 [naphthalene-2-sulfonic acid]	−1.8	2.1	
CCCCCCCC/C=C\CCCCCCCC(=O)O [oleic acid]	4-5	6.78	
O=C(O)c1cc2ccccc2c(Cc2c(O)c(C(=O)O)cc3ccccc23)c1O [pamoic acid]	2.4		
CCN(CC)CCNC(=O)c1c(C)[nH]c(/C=C2\C(=O)Nc3ccc(F)cc32)c1C [sunitinib, reference compound]			pKa [1, 5]: 7.07
CC[C@]1(O)C[C@H]2CN(CCc3c([nH]c4ccccc34)[C@@](C(=O)OC)(c3cc4c(cc3OC)N(C=O)[C@H]3[C@@](O)(C(=O)OC)[C@H](OC(C)=O)[C@]5(CC)C=CCN6CC[C@]43[C@@H]65)C2)C1 [vincristine, reference compound]			pKa [1, 5]: 7.08
